In patent US20230257347A1 (priority 2020, published 2023):
Where two headings read alike, the source gives them in different places.

What was measured:
[1] = biological target: T1, MAOA (Homo sapiens, UniProt P21397); conditions: cited from earlier work; for IC50: read-out: MAOA IC50, Table 10, Source (1) Wagmann et al. 2017
T1 sequence (P21397 1-527): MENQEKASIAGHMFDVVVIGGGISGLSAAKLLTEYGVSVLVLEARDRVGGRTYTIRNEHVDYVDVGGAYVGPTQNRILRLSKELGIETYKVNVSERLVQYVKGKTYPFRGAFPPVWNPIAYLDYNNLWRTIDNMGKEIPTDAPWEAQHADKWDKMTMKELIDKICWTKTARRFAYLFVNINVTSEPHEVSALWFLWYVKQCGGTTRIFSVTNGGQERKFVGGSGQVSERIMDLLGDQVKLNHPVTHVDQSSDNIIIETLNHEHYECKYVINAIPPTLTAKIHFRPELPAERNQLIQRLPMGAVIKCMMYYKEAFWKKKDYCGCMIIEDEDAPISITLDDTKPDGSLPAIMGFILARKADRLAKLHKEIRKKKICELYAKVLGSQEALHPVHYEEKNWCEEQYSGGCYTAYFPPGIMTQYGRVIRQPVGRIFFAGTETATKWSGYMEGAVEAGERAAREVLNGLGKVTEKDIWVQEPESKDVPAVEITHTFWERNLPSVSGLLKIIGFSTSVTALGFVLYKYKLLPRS

[2] = biological target: T2, Monoamine oxidase type A (MAOA) (Homo sapiens, UniProt P21397); test: Enzymatic assay, MAOA (kynuramine substrate); assay type: biochemical; conditions: for Hill: Hill of MAOA inhibition curve, Original data; for MAOA inhibition (MAOI or not, in words): original data
T2 construct: purchased Sigma
T2 sequence (P21397 1-527): T1 sequence (P21397 1-527)

[3] = test system: neuritogenesis; conditions: cited from earlier work
[4] = biological target: T3, human 5-HT transporter (hSERT) (Homo sapiens, UniProt P31645); test: hSERT antagonist radioligand assay ([3H]imipramine), CHO cells; assay type: binding
T3 construct: expressed in transfected cells; host or cells: CHO
Text: Interactions with these transporters were therefore separately measured using two additional types of assays: an antagonist radioligand assay of inhibition of the human 5-HT transporter (hSERT) expressed in CHO cells (Tatsumi, M. et al. (1999), Eur. J. Pharmacol., 368: 277-283) and an assay measuring release of [^3H] […] While the former is sensitive to classic reuptake inhibition, the latter can detect the effects of substrates, which also induce release. Specific assay steps and reference compounds are given below for each assay type.
Three tryptamine derivatives were evaluated for inhibiting the human 5-HT transporter (hSERT) as expressed in CHO cells using an antagonist radioligand assay (Tatsumi, M. et al. 1999, Eur. J. Pharmacol., 368: 277-283). […] Test compounds were assayed in two trials at 3.0E-10, 3.0E-9, 3.0E-8, 3.0E-7, 3.0E-6, and 3.0E-5 M.

[5] = biological target: T4, human DAT (Homo sapiens, UniProt Q01959); test: hDAT release of [3H]dopamine, CHO cells; assay type: cell-based; conditions: for DAT/SERT ratio: (DAT EC50)^−1/(SERT EC50)^−1, larger numbers indicate higher DAT selectivity
T4 construct: expressed in transfected cells

[6] = biological target: T5, human SERT (Homo sapiens, UniProt P31645); test: hSERT release of [3H]serotonin, CHO cells; assay type: cell-based
T5 construct: expressed in transfected cells

[7] = biological target: T6, Nicotinic acetylcholine Receptor α4 β2 (nAChR(a4/b2)) (Homo sapiens, UniProt P17787+P43681); test: cell-based; conditions: nAChR(a4/b2), Ion Channel, blocker; read-out: IC50 (μM) Antag./Blocker/Inhibitor
T6 construct: expressed in transfected cells

[8] = biological target: Gamma-aminobutyric acid Receptor A (GABAA) (Homo sapiens, UniProt P14867+P47870); assay type: cell-based; conditions: Ion Channel, blocker, read-out: IC50 (μM) Antag./Blocker/Inhibitor
Gamma-aminobutyric acid Receptor A (GABAA), sequence (P14867 28-456): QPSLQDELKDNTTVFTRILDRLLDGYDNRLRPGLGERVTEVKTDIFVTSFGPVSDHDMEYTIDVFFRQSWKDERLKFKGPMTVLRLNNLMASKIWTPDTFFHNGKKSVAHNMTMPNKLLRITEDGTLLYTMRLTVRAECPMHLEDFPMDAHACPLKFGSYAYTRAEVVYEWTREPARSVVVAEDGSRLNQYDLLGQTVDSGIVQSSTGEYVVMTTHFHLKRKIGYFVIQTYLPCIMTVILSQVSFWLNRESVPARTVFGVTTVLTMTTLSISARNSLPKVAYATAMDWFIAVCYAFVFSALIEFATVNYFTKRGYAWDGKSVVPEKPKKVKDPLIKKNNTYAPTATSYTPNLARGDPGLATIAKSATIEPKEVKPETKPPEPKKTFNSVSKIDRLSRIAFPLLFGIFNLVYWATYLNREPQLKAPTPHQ
Gamma-aminobutyric acid Receptor A (GABAA), sequence (P47870 26-512): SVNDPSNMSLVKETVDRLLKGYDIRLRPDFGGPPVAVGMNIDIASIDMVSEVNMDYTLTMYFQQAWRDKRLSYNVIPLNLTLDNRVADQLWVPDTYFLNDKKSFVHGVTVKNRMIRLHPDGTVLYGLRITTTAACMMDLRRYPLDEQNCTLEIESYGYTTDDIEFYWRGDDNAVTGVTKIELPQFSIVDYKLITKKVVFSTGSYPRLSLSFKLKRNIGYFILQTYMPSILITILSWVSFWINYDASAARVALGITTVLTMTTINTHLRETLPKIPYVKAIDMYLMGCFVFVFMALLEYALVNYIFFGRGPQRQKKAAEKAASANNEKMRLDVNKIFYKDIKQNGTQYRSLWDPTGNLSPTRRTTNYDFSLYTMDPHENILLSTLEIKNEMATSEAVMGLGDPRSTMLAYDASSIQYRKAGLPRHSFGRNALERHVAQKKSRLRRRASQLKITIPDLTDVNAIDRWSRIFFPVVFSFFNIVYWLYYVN
Gamma-aminobutyric acid Receptor A (GABAA), sequence (P18507 40-475 partner): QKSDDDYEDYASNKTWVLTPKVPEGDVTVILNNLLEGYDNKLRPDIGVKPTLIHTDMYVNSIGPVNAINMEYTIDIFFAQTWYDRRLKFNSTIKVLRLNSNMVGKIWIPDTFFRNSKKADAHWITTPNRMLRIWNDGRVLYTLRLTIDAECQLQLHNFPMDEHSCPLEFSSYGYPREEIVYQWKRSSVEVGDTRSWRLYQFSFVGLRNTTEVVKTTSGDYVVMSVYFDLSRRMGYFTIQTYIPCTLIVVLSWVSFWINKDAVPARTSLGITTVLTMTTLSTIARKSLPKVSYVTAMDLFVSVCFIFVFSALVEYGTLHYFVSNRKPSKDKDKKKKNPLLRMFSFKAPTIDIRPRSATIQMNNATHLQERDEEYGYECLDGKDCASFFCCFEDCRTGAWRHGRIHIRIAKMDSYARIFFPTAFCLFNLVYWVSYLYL

T4 sequence (Q01959 whole entry): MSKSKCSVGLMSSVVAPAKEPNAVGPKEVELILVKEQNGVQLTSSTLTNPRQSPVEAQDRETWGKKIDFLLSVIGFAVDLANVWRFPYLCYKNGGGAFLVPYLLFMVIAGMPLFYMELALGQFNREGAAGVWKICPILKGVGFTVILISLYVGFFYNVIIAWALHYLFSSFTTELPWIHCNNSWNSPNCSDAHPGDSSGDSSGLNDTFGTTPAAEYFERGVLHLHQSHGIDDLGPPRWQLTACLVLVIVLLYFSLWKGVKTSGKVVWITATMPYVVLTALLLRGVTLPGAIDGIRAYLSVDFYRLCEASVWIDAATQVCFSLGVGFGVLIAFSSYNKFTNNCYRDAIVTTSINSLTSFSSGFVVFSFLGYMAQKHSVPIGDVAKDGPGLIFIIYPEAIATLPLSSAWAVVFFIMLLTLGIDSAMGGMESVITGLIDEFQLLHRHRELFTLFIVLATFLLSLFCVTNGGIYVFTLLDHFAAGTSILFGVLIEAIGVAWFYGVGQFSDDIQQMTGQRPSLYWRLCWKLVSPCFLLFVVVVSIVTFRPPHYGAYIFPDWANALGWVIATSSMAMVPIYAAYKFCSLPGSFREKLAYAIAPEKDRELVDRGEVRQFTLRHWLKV
T3 sequence (P31645 whole entry): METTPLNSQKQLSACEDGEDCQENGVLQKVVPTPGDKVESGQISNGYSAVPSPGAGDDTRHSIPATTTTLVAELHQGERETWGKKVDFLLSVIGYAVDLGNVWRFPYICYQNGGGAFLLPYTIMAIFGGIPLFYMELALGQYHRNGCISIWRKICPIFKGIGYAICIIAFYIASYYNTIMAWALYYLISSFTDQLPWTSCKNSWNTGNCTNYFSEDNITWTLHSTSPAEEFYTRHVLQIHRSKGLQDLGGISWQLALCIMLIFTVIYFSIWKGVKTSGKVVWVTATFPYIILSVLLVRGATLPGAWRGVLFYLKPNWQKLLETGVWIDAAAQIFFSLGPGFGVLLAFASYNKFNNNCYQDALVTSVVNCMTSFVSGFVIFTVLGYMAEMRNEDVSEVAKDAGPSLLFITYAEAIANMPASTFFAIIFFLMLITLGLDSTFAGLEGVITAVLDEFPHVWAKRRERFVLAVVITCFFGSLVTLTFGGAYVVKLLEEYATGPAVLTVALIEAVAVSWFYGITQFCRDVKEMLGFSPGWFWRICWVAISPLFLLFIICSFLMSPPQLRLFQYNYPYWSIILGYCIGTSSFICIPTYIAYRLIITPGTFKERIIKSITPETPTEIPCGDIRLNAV
T5 sequence (P31645 whole entry): as above
T6 sequence (P43681 29-627 limits assumed): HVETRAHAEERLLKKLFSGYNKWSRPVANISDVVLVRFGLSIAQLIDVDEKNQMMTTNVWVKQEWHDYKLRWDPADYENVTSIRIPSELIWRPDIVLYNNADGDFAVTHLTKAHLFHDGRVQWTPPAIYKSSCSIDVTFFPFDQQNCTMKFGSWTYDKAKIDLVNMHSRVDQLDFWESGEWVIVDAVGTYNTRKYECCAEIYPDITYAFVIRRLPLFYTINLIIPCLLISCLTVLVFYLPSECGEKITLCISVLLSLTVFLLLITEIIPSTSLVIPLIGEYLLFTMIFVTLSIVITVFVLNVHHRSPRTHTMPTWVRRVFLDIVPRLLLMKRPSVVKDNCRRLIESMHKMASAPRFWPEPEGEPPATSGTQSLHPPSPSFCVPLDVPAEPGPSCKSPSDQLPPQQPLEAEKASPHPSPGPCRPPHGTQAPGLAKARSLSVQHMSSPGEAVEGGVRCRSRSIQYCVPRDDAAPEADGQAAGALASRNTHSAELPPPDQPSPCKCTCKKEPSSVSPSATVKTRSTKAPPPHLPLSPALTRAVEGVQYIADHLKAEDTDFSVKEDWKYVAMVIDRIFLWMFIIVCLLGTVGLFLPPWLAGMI
T6 sequence (P17787 26-502): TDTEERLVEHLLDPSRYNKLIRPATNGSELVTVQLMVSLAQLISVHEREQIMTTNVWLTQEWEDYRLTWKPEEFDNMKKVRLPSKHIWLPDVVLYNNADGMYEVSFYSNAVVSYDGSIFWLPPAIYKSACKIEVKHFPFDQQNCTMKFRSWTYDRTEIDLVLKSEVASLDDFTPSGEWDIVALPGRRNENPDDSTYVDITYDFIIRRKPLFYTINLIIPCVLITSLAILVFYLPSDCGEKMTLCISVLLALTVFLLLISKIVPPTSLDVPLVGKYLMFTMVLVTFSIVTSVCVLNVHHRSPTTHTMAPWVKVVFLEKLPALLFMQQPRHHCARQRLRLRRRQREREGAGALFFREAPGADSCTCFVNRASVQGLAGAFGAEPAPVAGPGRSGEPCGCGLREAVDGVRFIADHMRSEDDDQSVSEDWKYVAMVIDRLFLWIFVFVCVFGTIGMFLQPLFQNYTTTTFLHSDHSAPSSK

For `CC(N)Cc1c[nH]c2ccccc12` (stereo not drawn) [1-(1H-indol-3-yl)propan-2-amine], the IC50 [1] is listed as 0.38 µM.

For `CC(N)Cc1c[nH]c2ccc(Br)cc12` (stereo not drawn) [1-(5-bromo-1H-indol-3-yl)propan-2-amine], the IC50 [1] is given as 1.3 µM.

In the case of `CC(N)Cc1c[nH]c2ccc(Cl)cc12` (stereo not drawn) [1-(5-chloro-1H-indol-3-yl) propan-2-amine], the IC50 [1] is given as 0.25 µM.

For `CC(N)Cc1c[nH]c2ccc(F)cc12` (stereo not drawn) [1-(5-fluoro-1H-indol-3-yl) propan-2-amine], the “MAOA inhibition (MAOI or not, in words)” value ([1]; previously reported data) is given as “are MAOIs” and the IC50 [1] is given as 0.45 µM.

With `CNCC(=O)c1c[nH]c2ccc(F)cc12` [1-(5-fluoro-1H-indol-3-yl)-2-(methylamino)ethan-1-one, reference compound] the Hill [2] was 1.02, the IC50 ([2]; Table 10, Source: Original data, read-out: MAOA IC50) was 3.43 µM and the “MAOA inhibition (MAOI or not, in words)” value [2] was “is also an MAOI”.

`CCC(N)Cc1c[nH]c2ccc(F)cc12` (stereo not drawn) [1-(5-fluoro-1H-indol-3-yl)butan-2-amine, reference compound] gave an IC50 [2] of 2.48 µM and a Hill [2] of 0.89.

In the case of `Cc1[nH]c2ccc(F)cc2c1CC(C)N` (stereo not drawn) [1-(5-fluoro-2-methyl-1H-indol-3-yl)propan-2-amine], the IC50 [1] is given as 4.1 µM.

For `Cc1ccc2[nH]cc(CC(C)N)c2c1` (stereo not drawn) [1-(5-methyl-1H-indol-3-yl) propan-2-amine], the IC50 [1] is given as 1.5 µM.

In the case of `CC(N)Cc1c[nH]c2cc(F)ccc12` (stereo not drawn) [1-(6-fluoro-1H-indol-3-yl) propan-2-amine], the IC50 [1] is given as 1.8 µM.

In the case of `CCC(N)C(=O)c1c[nH]c2ccc(F)cc12` (stereo not drawn) [2-amino-1-(5-fluoro-1H-indol-3-yl) butan-1-one], the IC50 [2] is reported as over 30 µM.

In the case of `CNC(C)Cc1ccc2c(c1)OCO2` (stereo not drawn) [MDMA, 3,4-methylenedioxymethamphetamine], the EC50 ([3]; Ly et al. Cell reports 2018, Figure S3, read-out: EC50 for promoting neuritogenesis) is given as 0.00741 µM and the “Emax for promoting neuritogenesis” value ([3]; relative to ketamine, Ly et al. 2018) is given as “approximately twice that of ketamine”.

In the case of `CNC(C)Cc1c[nH]c2ccc(F)cc12` (stereo not drawn) [[1-(5-fluoro-1H-indol-3-yl)propan-2-yl](methyl)amine, reference compound], the IC50 [2] is reported as 0.45 µM, the Hill [2] is reported as 1.01 and the “MAOA inhibition (MAOI or not, in words)” value [2] is reported as “are MAOIs”.

`CNC(C)C(=O)c1c[nH]c2ccc(F)cc12` (stereo not drawn) [drawing 183] showed an IC50 [4] of 3.5 µM and a Ki [4] of 1.6 µM.

With `CNC(C)C(=O)c1c[nH]c2ccc(Br)cc12` (stereo not drawn) [drawing 184] the IC50 [4] was 5.6 µM and the Ki [4] was 2.6 µM.

`CNC(C)C(=O)c1c[nH]c2ccc(Cl)cc12` (stereo not drawn) [drawing 185] gave an IC50 [4] of 2.5 µM and a Ki [4] of 1.1 µM.

For `CNC(C)C(=O)c1c[nH]c2ccc(F)cc12` (stereo not drawn) [drawing 186], the EC50 [5] was 0.62 µM, the DAT/SERT ratio [5] was 0.31 and the EC50 [6] was 0.19 µM.

Compound `CNC(C)C(=O)c1c[nH]c2ccc(Br)cc12` (stereo not drawn) [drawing 187] has an EC50 [5] of 2.1 µM, a DAT/SERT ratio [5] of 0.14 and an EC50 [6] of 0.295 µM.

For `CNC(C)C(=O)c1c[nH]c2ccc(Cl)cc12` (stereo not drawn) [drawing 188], the EC50 [5] was 0.865 µM, the DAT/SERT ratio [5] was 0.23 and the EC50 [6] was 0.2 µM.

Compound “Dihydro-AY-erythroidine [reference compound]” has an IC50 [7] of 0.682 µM.

Work on Picrotoxin yielded an IC50 [8] of 2.78 µM.
